According to US5210193A, “Piperazine derivatives” (American Cyanamid Company, priority 1990, dated 1993):
In brackets after ≈: the same amount, converted by molar mass. Where two headings read alike, the source gives them in different places.

Legend:
Experiment in all cases: in vitro antibacterial MIC, agar plate dilution
Assay type in all cases: cell-based
[1] = tested on: Klebsiella pneumoniae MOR 84-24; conditions: Klebsiella pneumoniae, MOR8424, 18 h, 35° C., read-out: MIC
In short: (§1)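 MIC, mcg/ml: lowest concentration with no visible growth after 18 h incubation at 35° C. Mueller-Hinton agar dilution plates; ~10^4 CFU inoculum via Steers replicating device.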

[2] = tested on: Morganella morganii MOR 84-45; conditions: Morganella morganii, MOR8445, 18 h, 35° C., read-out: MIC
In short: as §1

[3] = tested on: Streptococcus faecalis VGH 84-65; conditions: Enterococcus faecalis, VGH8465, 18 h, 35° C., read-out: MIC
In short: as §1

[4] = tested on: Streptococcus faecalis VGH 84-69; conditions: Enterococcus faecalis, VGH8469, 18 h, 35° C., read-out: MIC
In short: as §1

[5] = tested on: Enterobacter cloacae K 84-10; conditions: Enterobacter cloacae, K8410, 18 h, 35° C., read-out: MIC
In short: as §1

[6] = tested on: Staphylococcus aureus VGH 84-47; conditions: Staphylococcus aureus, VGH8447, 18 h, 35° C., read-out: MIC
In short: as §1

[7] = tested on: Pseudomonas aeruginosa K 84-16; conditions: Pseudomonas aeruginosa, K8416, 18 h, 35° C., read-out: MIC
In short: as §1

[8] = tested on: Serratia marcescens VGH 84-30; conditions: Serratia marcescens, VGH8430, 18 h, 35° C., read-out: MIC
In short: as §1

[9] = tested on: Escherichia coli VGH 84-19; conditions: Escherichia coli, VGH8419, 18 h, 35° C., read-out: MIC
In short: as §1

[10] = tested on: Serratia marcescens K 84-18; conditions: Serratia marcescens, K8418, 18 h, 35° C., read-out: MIC
In short: as §1

[11] = tested on: Pseudomonas aeruginosa LL-1244; conditions: Pseudomonas aeruginosa, LL1244, 18 h, 35° C., read-out: MIC
In short: as §1

[12] = tested on: Escherichia coli MOR 84-20; conditions: Escherichia coli, MOR8420, 18 h, 35° C., read-out: MIC
In short: as §1

[13] = tested on: Pseudomonas aeruginosa CMC 83-20; conditions: Pseudomonas aeruginosa, CMC8320, 18 h, 35° C., read-out: MIC
In short: as §1

[14] = tested on: Streptococcus faecalis UCI 85-30; conditions: Enterococcus faecalis, UCI8530, 18 h, 35° C., read-out: MIC
In short: as §1

[15] = tested on: Klebsiella pneumoniae IO 83-5; conditions: Klebsiella pneumoniae, IO835, 18 h, 35° C., read-out: MIC
In short: as §1

[16] = tested on: Proteus rettgeri IO 83-21; conditions: Providencia rettgeri, IO8321, 18 h, 35° C., read-out: MIC
In short: as §1

[17] = tested on: Proteus rettgeri CMC 84-41; conditions: Providencia rettgeri, CMC8441, 18 h, 35° C., read-out: MIC
In short: as §1

[18] = tested on: Escherichia coli LL 311; conditions: Escherichia coli, LL311, 18 h, 35° C., read-out: MIC
In short: as §1

[19] = tested on: Pseudomonas aeruginosa VGH 84-4; conditions: Pseudomonas aeruginosa, VGH844, 18 h, 35° C., read-out: MIC
In short: as §1

[20] = tested on: Klebsiella pneumoniae CMC 84-31; conditions: Klebsiella pneumoniae, CMC8431, 18 h, 35° C., read-out: MIC
In short: as §1

[21] = tested on: Staphylococcus aureus CMC 83-131; conditions: Staphylococcus aureus, CMC83131, 18 h, 35° C., read-out: MIC
In short: as §1

[22] = tested on: Escherichia coli CMC 84-50; conditions: Escherichia coli, CMC8450, 18 h, 35° C., read-out: MIC
In short: as §1

[23] = tested on: Staphylococcus aureus K 82-26; conditions: Staphylococcus aureus, K8226, 18 h, 35° C., read-out: MIC
In short: as §1

[24] = tested on: Enterobacter cloacae MOR 84-30; conditions: Enterobacter cloacae, MOR8430, 18 h, 35° C., read-out: MIC
In short: as §1

[25] = tested on: Streptococcus faecalis UCI 85-19; conditions: Enterococcus faecalis, UCI8519, 18 h, 35° C., read-out: MIC
In short: as §1

[26] = tested on: Staphylococcus aureus VGH 84-45; conditions: Staphylococcus aureus, VGH8445, 18 h, 35° C., read-out: MIC
In short: as §1

[27] = tested on: Serratia marcescens MOR 84-41; conditions: Serratia marcescens, MOR8441, 18 h, 35° C., read-out: MIC
In short: as §1

[28] = tested on: Providencia stuarti CMC 83-3; conditions: Providencia, CMC833, 18 h, 35° C., read-out: MIC
In short: as §1

[29] = tested on: Escherichia coli CMC 84-11; conditions: Escherichia coli, CMC8411, 18 h, 35° C., read-out: MIC
In short: as §1

[30] = tested on: Morganella morganii CMC 84-38; conditions: Morganella morganii, CMC8438, 18 h, 35° C., read-out: MIC
In short: as §1

[31] = tested on: Staphylococcus aureus ATTC 29213; conditions: 35° C.
In short: as §1

[32] = Staphylococcus aureus, ATTC29213, 18 h, read-out: MIC

Row | SMILES | MIC [1] [µg/mL] | MIC [2] [µg/mL] | MIC [3] [µg/mL] | MIC [4] [µg/mL] | MIC [5] [µg/mL] | MIC [6] [µg/mL] | MIC [7] [µg/mL] | MIC [8] [µg/mL] | MIC [9] [µg/mL] | MIC [10] [µg/mL] | MIC [11] [µg/mL] | MIC [12] [µg/mL] | MIC [13] [µg/mL] | MIC [14] [µg/mL] | MIC [15] [µg/mL] | MIC [16] [µg/mL] | MIC [17] [µg/mL] | MIC [18] [µg/mL] | MIC [19] [µg/mL] | MIC [20] [µg/mL] | other results
1 | CCn1cc(C(=O)O)c(=O)c2cc(F)c(N3CCNC(c4cccnc4)C3)cc21 (stereo not drawn) [Example 122] | 4 (≈ 10.1 µM) | 1 (≈ 2.52 µM) | 8 (≈ 20.2 µM) | 8 (≈ 20.2 µM) | 1 (≈ 2.52 µM) | 1 (≈ 2.52 µM) | > 16 | 32 (≈ 80.7 µM) | 1 (≈ 2.52 µM) | 1 (≈ 2.52 µM) | 32 (≈ 80.7 µM) | 1 (≈ 2.52 µM) | > 16 | 8 (≈ 20.2 µM) | 2 (≈ 5.05 µM) | 4 (≈ 10.1 µM) | 0.25 (≈ 0.631 µM) | 0.25 (≈ 0.631 µM) | 32 (≈ 80.7 µM) | 4 (≈ 10.1 µM) | MIC [21]: 8 µg/mL (≈ 20.2 µM); MIC [22]: 2 µg/mL (≈ 5.05 µM); MIC [23]: 1 µg/mL (≈ 2.52 µM); MIC [24]: 16 µg/mL (≈ 40.4 µM); MIC [25]: 4 µg/mL (≈ 10.1 µM); MIC [26]: 0.25 µg/mL (≈ 0.631 µM); MIC [27]: 4 µg/mL (≈ 10.1 µM); MIC [28]: > 16 µg/mL; MIC [29]: 0.25 µg/mL (≈ 0.631 µM); MIC [30]: 1 µg/mL (≈ 2.52 µM); MIC ([31]; 18 hours): 1 µg/mL (≈ 2.52 µM); MIC [31, 32]: 0.5 µg/mL (≈ 1.26 µM)
2 | O=C(O)c1cn(C2CC2)c2cc(N3CCNC(c4cc[nH]n4)C3)c(F)cc2c1=O (stereo not drawn) [Example 121, 1-Cyclopropyl-6-fluoro-1,4-dihydro-4-oxo-7-[3-(1H-pyrazol-3-yl)-1-piperazinyl]-3-quinolinecarboxylic acid] | 1 (≈ 2.52 µM) | 0.25 (≈ 0.629 µM) | 2 (≈ 5.03 µM) | 2 (≈ 5.03 µM) | 0.25 (≈ 0.629 µM) | 1 (≈ 2.52 µM) | > 16 | 32 (≈ 80.5 µM) | 0.25 (≈ 0.629 µM) | 0.25 (≈ 0.629 µM) | 16 (≈ 40.3 µM) | 0.25 (≈ 0.629 µM) | 16 (≈ 40.3 µM) | 2 (≈ 5.03 µM) | 1 (≈ 2.52 µM) | 1 (≈ 2.52 µM) | 0.5 (≈ 1.26 µM) | 0.12 (≈ 0.302 µM) | 8 (≈ 20.1 µM) | 0.25 (≈ 0.629 µM) | MIC [21]: 2 µg/mL (≈ 5.03 µM); MIC [22]: 0.25 µg/mL (≈ 0.629 µM); MIC [23]: 1 µg/mL (≈ 2.52 µM); MIC [24]: 4 µg/mL (≈ 10.1 µM); MIC [25]: 2 µg/mL (≈ 5.03 µM); MIC [26]: 0.5 µg/mL (≈ 1.26 µM); MIC [27]: 1 µg/mL (≈ 2.52 µM); MIC [28]: > 16 µg/mL; MIC [29]: 0.06 µg/mL (≈ 0.151 µM); MIC [30]: 0.5 µg/mL (≈ 1.26 µM); MIC ([31]; 18 hours): 2 µg/mL (≈ 5.03 µM); MIC [31, 32]: 1 µg/mL (≈ 2.52 µM)
3 | CCn1cc(C(=O)O)c(=O)c2cc(F)c(N3CCNC(c4ccncc4)C3)cc21 (stereo not drawn) [Example 123] | 8 (≈ 20.2 µM) | 2 (≈ 5.05 µM) | 8 (≈ 20.2 µM) | 16 (≈ 40.4 µM) | 2 (≈ 5.05 µM) | 2 (≈ 5.05 µM) | > 16 | 64 (≈ 161 µM) | 2 (≈ 5.05 µM) | 8 (≈ 20.2 µM) | 64 (≈ 161 µM) | 2 (≈ 5.05 µM) | > 16 | > 16 | 8 (≈ 20.2 µM) | 8 (≈ 20.2 µM) | 2 (≈ 5.05 µM) | 1 (≈ 2.52 µM) | 64 (≈ 161 µM) | 4 (≈ 10.1 µM) | MIC [21]: 2 µg/mL (≈ 5.05 µM); MIC [22]: 4 µg/mL (≈ 10.1 µM); MIC [23]: 16 µg/mL (≈ 40.4 µM); MIC [24]: > 16 µg/mL; MIC [25]: 8 µg/mL (≈ 20.2 µM); MIC [26]: 0.5 µg/mL (≈ 1.26 µM); MIC [27]: 8 µg/mL (≈ 20.2 µM); MIC [28]: > 16 µg/mL; MIC [29]: 2 µg/mL (≈ 5.05 µM); MIC [30]: 2 µg/mL (≈ 5.05 µM); MIC ([31]; 18 hours): 1 µg/mL (≈ 2.52 µM); MIC [31, 32]: 0.5 µg/mL (≈ 1.26 µM)
